Measurements published in BindingDB's records for doi:10.1016/j.bmcl.2009.04.023 (Banyu Pharmaceutical, 2009).

Molecular target: Nociceptin receptor (Homo sapiens, UniProt P41146)
Experiment: In Vitro Binding Assay (IC50) and In Vitro Agonism/Antagonism Measurements (EC50/IC50)
Details: pH 7.4; 37 °C
Procedure: Compounds were tested for their inhibitory effects on ligand binding to the human ORL1 receptor. Bound and free radioligands are separated by filtration using a unifilter plate GF/C-96. The remaining radioactivity on the filter was counted using a TopCount-HTS (PerkinElmer). Specific binding of [125I][Tyr14]nociceptin is defined as the difference between total binding and nonspecific binding in the presence of 1 uM nociceptin. J-113397 was used as internal control across all assay plates for internal validation. IC50 values are calculated using GraphPad Prism. Agonist/antagonist activities were measured by the [35S]GTPgamma-S binding to proteins using membrane fractions of CHO cells expressing ORL1. Nonspecific binding is determined in the presence of 10 uM unlabeled GTPgammaS. Membrane-bound radioactivity is measured using a TopCount-HTS (PerkinElmer). Specific binding of [35S]GTPgammaS is determined as a difference between the control (in the presence of appropriate concentration of nociceptin), and the baseline (in the presence of DMSO instead of compound). EC50/IC50 values are calculated from % of specific binding in the presence of various concentration of the compound using GraphPad Prism 3.03.

Chain of Nociceptin receptor (P41146 whole entry): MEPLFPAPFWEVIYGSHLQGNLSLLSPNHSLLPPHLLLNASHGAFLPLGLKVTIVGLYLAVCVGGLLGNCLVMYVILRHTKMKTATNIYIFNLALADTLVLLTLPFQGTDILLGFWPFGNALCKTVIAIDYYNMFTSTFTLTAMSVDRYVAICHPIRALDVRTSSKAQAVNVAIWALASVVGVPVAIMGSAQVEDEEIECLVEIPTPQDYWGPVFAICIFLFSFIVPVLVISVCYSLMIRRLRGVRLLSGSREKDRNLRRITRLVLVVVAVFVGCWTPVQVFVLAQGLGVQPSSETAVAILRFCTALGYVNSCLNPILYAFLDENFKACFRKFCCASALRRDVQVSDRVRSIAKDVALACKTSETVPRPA

| IC50 | Compound |
| --- | --- |
| 2.4 nM | CCN1CCN(c2cc3[nH]c(C(=O)[C@]4(CC)CC[C@@](C)(O)CC4)nc3cc2Cl)CC1 [2-Cyclohexylcarbonylbenzimidazole, 7e] |
| 7.5 nM | CCN1CCN(c2cc3[nH]c(C(=O)[C@]4(C)CC[C@@H](NC(=O)OC)CC4)nc3cc2Cl)CC1 [2-Cyclohexylcarbonylbenzimidazole, 7a] |
| 38 nM | CCN1CCN(c2cc3[nH]c(C(=O)C4(C)CCC(=O)CC4)nc3cc2Cl)CC1 [2-Cyclohexylcarbonylbenzimidazole, 9] |
| 1.3 nM | CCN1CCN(c2cc3[nH]c(C(=O)[C@]4(C)CC[C@@](C)(O)CC4)nc3cc2Cl)CC1 [2-Cyclohexylcarbonylbenzimidazole, 7c] |
| 5.3 nM | CCN1CCN(c2cc3[nH]c(C(=O)[C@]4(C)CC[C@@H](NC(=O)OC)CC4)nc3cc2C)CC1 [2-Cyclohexylcarbonylbenzimidazole, 7b] |
